Measured values as given in PubChem BioAssay (NCI).
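Step 1: Grow cells in 96-well plates. Step 2: Expose to compound for 48 hours at 5 concentrations. Step 3: Interpolate endpoints linearly; if unreached, use highest concentration. GI50 = concentration required for 50% inhibition of growth. TGI denotes the concentration required for complete inhibition of growth.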

Tests used:
Test in all cases: inhibition of tumour cell growth, NCI panel, 48 h
IGROV1 ovarian = system: IGROV1 ovarian
BT-549 breast = system: BT-549 breast
HCT-116 colon = system: HCT-116 colon
NCI-H460 lung = system: NCI-H460 lung
SK-MEL-2 melanoma = system: SK-MEL-2 melanoma
HCC-2998 colon = system: HCC-2998 colon
MALME-3M melanoma = system: MALME-3M melanoma
NCI-H522 lung = system: NCI-H522 lung
SN12C renal = system: SN12C renal
OVCAR-4 ovarian = system: OVCAR-4 ovarian
MOLT-4 leukemia = system: MOLT-4 leukemia
UO-31 renal = system: UO-31 renal
OVCAR-5 ovarian = system: OVCAR-5 ovarian
HL-60(TB) leukemia = system: HL-60(TB) leukemia
OVCAR-8 ovarian = system: OVCAR-8 ovarian
OVCAR-3 ovarian = system: OVCAR-3 ovarian
LOX IMVI melanoma = system: LOX IMVI melanoma
TK-10 renal = system: TK-10 renal
A549 NSCLC = system: A549 NSCLC
SNB-19 CNS = system: SNB-19 CNS
A498 renal = system: A498 renal
RXF 393 renal = system: RXF 393 renal
786-0 renal = system: 786-0 renal
DU-145 prostate = system: DU-145 prostate
NCI-H226 lung = system: NCI-H226 lung
COLO 205 colon = system: COLO 205 colon
U251 CNS = system: U251 CNS
NCI-H23 lung = system: NCI-H23 lung
SF-268 CNS = system: SF-268 CNS
MDA-MB-435 = system: MDA-MB-435
EKVX NSCLC = system: EKVX NSCLC
HS 578T breast = system: HS 578T breast
ACHN renal = system: ACHN renal
HOP-62 NSCLC = system: HOP-62 NSCLC
CAKI-1 renal = system: CAKI-1 renal
SR leukemia = system: SR leukemia
SNB-75 CNS = system: SNB-75 CNS
PC-3 prostate = system: PC-3 prostate
CCRF-CEM leukemia = system: CCRF-CEM leukemia
KM12 colon = system: KM12 colon
SK-MEL-28 melanoma = system: SK-MEL-28 melanoma
T-47D breast = system: T-47D breast
SF-539 CNS = system: SF-539 CNS
SK-OV-3 ovarian = system: SK-OV-3 ovarian
HCT-15 colon = system: HCT-15 colon
M14 melanoma = system: M14 melanoma
SF-295 CNS = system: SF-295 CNS
UACC-257 melanoma = system: UACC-257 melanoma
MCF7 breast = system: MCF7 breast
HT29 colon = system: HT29 colon
HOP-92 NSCLC = system: HOP-92 NSCLC
UACC-62 melanoma = system: UACC-62 melanoma
SW-620 colon = system: SW-620 colon
MDA-MB-231 breast = system: MDA-MB-231 breast
K-562 leukemia = system: K-562 leukemia
RPMI-8226 leukemia = system: RPMI-8226 leukemia
SK-MEL-5 melanoma = system: SK-MEL-5 melanoma

For `COc1cc([C@@H]2c3cc4c(cc3C(Br)[C@H]3COC(=O)[C@H]23)OCO4)cc(OC)c1OC` (stereo partly specified), the GI50 (IGROV1 ovarian) was 291 nM, the TGI (IGROV1 ovarian) was over 65900 nM and the GI50 (BT-549 breast) was 254 nM. For the same compound, the GI50 (HCT-116 colon) was 207 nM, the TGI (HCT-116 colon) was 784 nM and the GI50 (NCI-H460 lung) was 204 nM. For the same compound, the TGI (NCI-H460 lung) was 547 nM, the GI50 (SK-MEL-2 melanoma) was 499 nM and the TGI (SK-MEL-2 melanoma) was over 100000 nM. It also gave a GI50 (HCC-2998 colon) of 255 nM, a TGI (HCC-2998 colon) of 694 nM and a GI50 (MALME-3M melanoma) of 51300 nM. It also gave a TGI (MALME-3M melanoma) of over 100000 nM, a GI50 (NCI-H522 lung) of 72 nM and a TGI (NCI-H522 lung) of 389 nM. The GI50 (SN12C renal) was 549 nM, the TGI (SN12C renal) was over 100000 nM and the GI50 (OVCAR-4 ovarian) was 541 nM. For the same compound, the TGI (OVCAR-4 ovarian) was over 100000 nM, the GI50 (MOLT-4 leukemia) was 431 nM and the TGI (MOLT-4 leukemia) was over 100000 nM. For the same compound, the GI50 (UO-31 renal) was 418 nM, the TGI (UO-31 renal) was over 100000 nM and the GI50 (OVCAR-5 ovarian) was 552 nM. For the same compound, the TGI (OVCAR-5 ovarian) was over 100000 nM, the GI50 (HL-60(TB) leukemia) was 223 nM and the GI50 (OVCAR-8 ovarian) was 310 nM. For the same compound, the GI50 (OVCAR-3 ovarian) was 213 nM, the TGI (OVCAR-3 ovarian) was 559 nM and the GI50 (LOX IMVI melanoma) was 264 nM. For the same compound, the TGI (LOX IMVI melanoma) was over 100000 nM, the TGI (TK-10 renal) was over 100000 nM and the GI50 (A549 NSCLC) was 313 nM. The TGI (A549 NSCLC) was over 100000 nM, the GI50 (SNB-19 CNS) was 553 nM and the TGI (SNB-19 CNS) was over 100000 nM. For the same compound, the GI50 (A498 renal) was 25.7 nM, the TGI (A498 renal) was 177 nM and the GI50 (RXF 393 renal) was 81.5 nM. It also gave a TGI (RXF 393 renal) of 6480 nM, a GI50 (786-0 renal) of 307 nM and a TGI (786-0 renal) of 33800 nM. It also gave a GI50 (DU-145 prostate) of 252 nM, a TGI (DU-145 prostate) of 646 nM and a GI50 (NCI-H226 lung) of 721 nM. It also gave a TGI (NCI-H226 lung) of over 100000 nM, a GI50 (COLO 205 colon) of 189 nM and a TGI (COLO 205 colon) of 399 nM. The GI50 (U251 CNS) was 296 nM, the TGI (U251 CNS) was over 81200 nM and the GI50 (NCI-H23 lung) was 321 nM. The TGI (NCI-H23 lung) was over 100000 nM, the GI50 (SF-268 CNS) was 399 nM and the TGI (SF-268 CNS) was over 100000 nM. The GI50 (MDA-MB-435) was 36.5 nM, the GI50 (EKVX NSCLC) was 533 nM and the TGI (EKVX NSCLC) was over 100000 nM. It also gave a GI50 (HS 578T breast) of 142 nM, a TGI (HS 578T breast) of 707 nM and a GI50 (ACHN renal) of 241 nM. It also gave a TGI (ACHN renal) of over 100000 nM, a GI50 (HOP-62 NSCLC) of 436 nM and a TGI (HOP-62 NSCLC) of over 100000 nM. It also gave a GI50 (CAKI-1 renal) of 117 nM, a TGI (CAKI-1 renal) of over 48400 nM and a GI50 (SR leukemia) of 117 nM. For the same compound, the TGI (SR leukemia) was over 100000 nM, the GI50 (SNB-75 CNS) was 271 nM and the TGI (SNB-75 CNS) was over 100000 nM. For the same compound, the GI50 (PC-3 prostate) was 438 nM, the TGI (PC-3 prostate) was over 100000 nM and the GI50 (CCRF-CEM leukemia) was 363 nM. It also gave a TGI (CCRF-CEM leukemia) of over 100000 nM, a GI50 (KM12 colon) of 90.9 nM and a TGI (KM12 colon) of 438 nM. The GI50 (SK-MEL-28 melanoma) was 53500 nM, the TGI (SK-MEL-28 melanoma) was over 100000 nM and the GI50 (T-47D breast) was over 100000 nM. For the same compound, the TGI (T-47D breast) was over 100000 nM, the GI50 (SF-539 CNS) was 185 nM and the TGI (SF-539 CNS) was 598 nM. The GI50 (SK-OV-3 ovarian) was 312 nM, the TGI (SK-OV-3 ovarian) was over 100000 nM and the GI50 (HCT-15 colon) was 253 nM. It also gave a TGI (HCT-15 colon) of over 100000 nM, a GI50 (M14 melanoma) of 220 nM and a GI50 (SF-295 CNS) of 85.9 nM. It also gave a GI50 (UACC-257 melanoma) of 214 nM, a TGI (UACC-257 melanoma) of over 100000 nM and a GI50 (MCF7 breast) of 168 nM. For the same compound, the TGI (MCF7 breast) was over 100000 nM, the GI50 (HT29 colon) was 289 nM and the TGI (HT29 colon) was 2850 nM. The GI50 (HOP-92 NSCLC) was 529 nM, the TGI (HOP-92 NSCLC) was over 30100 nM and the GI50 (UACC-62 melanoma) was 187 nM. The TGI (UACC-62 melanoma) was over 100000 nM, the GI50 (SW-620 colon) was 194 nM and the TGI (SW-620 colon) was over 100000 nM. It also gave a GI50 (MDA-MB-231 breast) of 296 nM, a GI50 (K-562 leukemia) of 185 nM and a TGI (K-562 leukemia) of over 100000 nM. The GI50 (RPMI-8226 leukemia) was 507 nM, the TGI (RPMI-8226 leukemia) was over 100000 nM and the GI50 (SK-MEL-5 melanoma) was 209 nM. It also gave a TGI (SK-MEL-5 melanoma) of 488 nM.
